Measurements published in US11235018B2, “Composition for preventing or treating cancer” (OKCHUNDANG CO., LTD., priority 2018, dated 2022).
Marks after values point to notes of the source that are not given here.

Assays:
PARP = test: Intratumoral PARP immune response cells; type: in vivo, mice; conditions: single: gefitinib 120 mg/kg or SKOG 400 mg/kg, oral, 35 days
[1] = Histopathological change of spleen; type: in vivo, mice; conditions: single: gefitinib 120 mg/kg or SKOG 400 mg/kg, oral, 35 days
IL-10 = test: Splenic IL-10 level in NCI-H520 xenograft mice; type: in vivo; conditions: single: gefitinib 120 mg/kg or SKOG 400 mg/kg, oral, 35 days
iNOS = test: Intratumoral iNOS immune response cells; type: in vivo, mice; conditions: single: gefitinib 120 mg/kg or SKOG 400 mg/kg, oral, 35 days
Caspase-3 = test: Intratumoral caspase-3 immune response cells; type: in vivo, mice; conditions: single: gefitinib 120 mg/kg or SKOG 400 mg/kg, oral, 35 days
[2] = Spleen weight in NCI-H520 xenograft mice; type: in vivo; conditions: single: gefitinib 120 mg/kg or SKOG 400 mg/kg, oral, 35 days
TNF-α [3] = test: Intratumoral TNF-α immune response cells; type: in vivo, mice; conditions: single: gefitinib 120 mg/kg or SKOG 400 mg/kg, oral, 35 days
[4] = Histopathological change of periovarian fat; type: in vivo, mice; conditions: single: gefitinib 120 mg/kg or SKOG 400 mg/kg, oral, 35 days
IL-6 = test: Serum IL-6 level in NCI-H520 xenograft mice; type: in vivo; conditions: single: gefitinib 120 mg/kg or SKOG 400 mg/kg, oral, 35 days
IFN-γ = test: Serum IFN-γ level in NCI-H520 xenograft mice; type: in vivo; conditions: single: gefitinib 120 mg/kg or SKOG 400 mg/kg, oral, 35 days
IL-1β = test: Splenic IL-1β level in NCI-H520 xenograft mice; type: in vivo; conditions: single: gefitinib 120 mg/kg or SKOG 400 mg/kg, oral, 35 days
[5] = system: NCI-H520 tumor cell xenograft; test: Tumor weight in NCI-H520 xenograft mice; type: in vivo; conditions: single: gefitinib 120 mg/kg or SKOG 400 mg/kg, oral, 35 days
TNF-α [6] = test: Splenic TNF-α level in NCI-H520 xenograft mice; type: in vivo; conditions: single: gefitinib 120 mg/kg or SKOG 400 mg/kg, oral, 35 days
[7] = system: NCI-H520 tumor cell xenograft; test: Histopathological change of tumor mass (tumor cell volume, apoptotic cells); type: in vivo, mice; conditions: single: gefitinib 120 mg/kg or SKOG 400 mg/kg, oral, 35 days
[8] = Periovarian fat weight in NCI-H520 xenograft mice; type: in vivo; conditions: single: gefitinib 120 mg/kg or SKOG 400 mg/kg, oral, 35 days
COX-2 = test: Intratumoral COX-2 immune response cells; type: in vivo, mice; conditions: single: gefitinib 120 mg/kg or SKOG 400 mg/kg, oral, 35 days
[9] = Submandibular lymph node weight in NCI-H520 xenograft mice; type: in vivo; conditions: single: gefitinib 120 mg/kg or SKOG 400 mg/kg, oral, 35 days
peritoneal NK cell = test: Peritoneal NK cell activity in NCI-H520 xenograft mice; type: in vivo; conditions: single: gefitinib 120 mg/kg or SKOG 400 mg/kg, oral, 35 days
[10] = system: NCI-H520 tumor cell xenograft; test: Tumor volume in NCI-H520 xenograft mice; type: in vivo; conditions: single: gefitinib 120 mg/kg or SKOG 400 mg/kg
[11] = Histopathological change of submandibular lymph nodes; type: in vivo, mice; conditions: single: gefitinib 120 mg/kg or SKOG 400 mg/kg, oral, 35 days
splenic NK cell = test: Splenic NK cell activity in NCI-H520 xenograft mice; type: in vivo; conditions: single: gefitinib 120 mg/kg or SKOG 400 mg/kg, oral, 35 days
[12] = Body weight and weight gain in NCI-H520 xenograft mice; type: in vivo; conditions: single: gefitinib 120 mg/kg or SKOG 400 mg/kg

COc1cc2ncnc(Nc3ccc(F)c(Cl)c3)c2cc1OCCCN1CCOCC1 [Gefitinib, N-(3-chloro-4-fluorophenyl)-7-methoxy-6-(3-morpholinopropoxy)quinazolin-4-amine]
Percentage of immune-responsive cells, PARP (PARP): 46.98 %/tumor cells
change of proportion of PARP immune response cells in the tumor tissue compared with tumor xenograft control group (PARP): 223.59%
Number of splenic white pulps [1]: 4.63 ± 1.85^a /mm^2
Splenic white pulp diameter [1]: 187.63 ± 73.54^e μm/white pulp
change of number of splenic white pulps compared with tumor xenograft control group [1]: −5.13%
change of splenic overall thickness compared with tumor xenograft control group [1]: 0.42%
change of splenic white pulp diameter compared with tumor xenograft control group [1]: −0.60%
Splenic IL-10 (Interleukin-10) level (IL-10): 25.58 ± 11.94^a
change of splenic IL-10 level compared with tumor xenograft control group (IL-10): −3.53%
Percentage of immune-responsive cells, iNOS (iNOS): 12.07 %/tumor cells
change of proportion of iNOS immune response cells in the tumor tissue compared with tumor xenograft control group (iNOS): −0.50%
Percentage of immune-responsive cells, Caspase-3 (Caspase-3): 40.60 %/tumor cells
change of proportion of caspase-3 immune response cells in the tumor tissue compared with tumor xenograft control group (Caspase-3): 268.77%
Spleen (absolute weight) [2]: 0.051 ± 0.007^a
Spleen (relative weight) [2]: 0.251 ± 0.036^a
change of absolute spleen weight compared with tumor xenograft control group [2]: −7.13%
change of relative spleen weight compared with tumor xenograft control group [2]: 4.11%
Percentage of immune-responsive cells, TNF-α (TNF-α [3]): 7.28 %/tumor cells
change of proportion of TNF-α immune response cells in the tumor tissue compared with tumor xenograft control group (TNF-α [3]): −6.19%
White fat cell average diameter [4]: 12.36 ± 1.95^d μm
change of periovarian accumulation fat thickness compared with tumor xenograft control group [4]: −8.19%
change of white fat cell average diameter compared with tumor xenograft control group [4]: −6.37%
change of serum IL-6 level compared with tumor xenograft control group (IL-6): 6.25%
change of serum IFN-γ level compared with tumor xenograft control group (IFN-γ): −2.85%
Splenic IL-1β (Interleukin-1β) level (IL-1β): 8.36 ± 1.96^a
change of splenic IL-1β level compared with tumor xenograft control group (IL-1β): −3.18%
Tumor weight (absolute weight) [5]: 1.664 ± 0.292^f
Tumor weight (relative weight) [5]: 8.274 ± 1.443^g
change in absolute tumor weight compared with tumor xenograft control group [5]: −40.73%
change in relative tumor weight compared with tumor xenograft control group [5]: −33.56%
Splenic TNF-α (Tumor necrosis factor-α) level (TNF-α [6]): 26.23 ± 10.81^a
change of splenic TNF-α level compared with tumor xenograft control group (TNF-α [6]): −0.24%
Percentage of apoptotic cells [7]: 49.88%
Tumor cell volume [7]: 56.28 %/mm^2
change of proportion of apoptotic cells in the tumor tissue compared with tumor xenograft control group [7]: 560.23%
change of proportion of tumor cells in the tumor tissue compared with tumor xenograft control group [7]: −29.01%
Periovarian fat (absolute weight) [8]: 0.007 ± 0.002^d
Periovarian fat (relative weight) [8]: 0.036 ± 0.011^e
change of absolute periovarian fat weight compared with tumor xenograft control group [8]: −13.43%
change of relative periovarian fat weight compared with tumor xenograft control group [8]: −2.79%
Percentage of immune-responsive cells, COX-2 (COX-2): 38.89 %/tumor cells
change of proportion of COX-2 immune response cells in the tumor tissue compared with tumor xenograft control group (COX-2): −35.00%
Submandibular lymph nodes (absolute weight) [9]: 0.004 ± 0.001^d
change in absolute submandibular lymph node weight compared with tumor xenograft control group [9]: −8.82%
change in relative submandibular lymph node weight compared with tumor xenograft control group [9]: 1.85%
submandibular lymph nodes (relative weight) [9]: 0.019 ± 0.006^e
change of peritoneal NK cell activity compared with tumor xenograft control group (peritoneal NK cell): −7.43%
Tumor volume, start of administration [A] ([10]; baseline): 462.10 ± 105.87 mm^3
Tumor volume change [B − A] ([10]; oral, 35 days): 2396.41 ± 329.84 ^a mm^3
Tumor volume, at the time of sacrifice [B] ([10]; oral, 35 days): 2858.51 ± 377.01^a mm^3
change in tumor volume during drug administration period compared with tumor xenograft control group ([10]; oral, five weeks): −60.18%
Number of intracortical follicles [11]: 5.38 ± 2.39^d /mm^2
change of number of intracortical follicles in the submandibular lymph nodes compared with tumor xenograft control group [11]: −6.52%
change of submandibular lymph node cortex thickness compared with tumor xenograft control group [11]: −3.84%
change of submandibular lymph node overall thickness compared with tumor xenograft control group [11]: −2.55%
cortex thickness [11]: 215.75 ± 43.93^d μm/lymph node
submandibular lymph node overall thickness [11]: 501.50 ± 106.64^a μm/central region
change of splenic NK cell activity compared with tumor xenograft control group (splenic NK cell): −6.32%
Body weight, administration initiation ([12]; baseline): 19.29 ± 1.29 g
Actual body weight (excluding tumor weight) ([12]; oral, 35 days): 18.46 ± 0.77^ad g
Body weight, sacrifice ([12]; oral, 35 days): 20.13 ± 0.76^fg
Weight gain ([12]; oral, 35 days): −0.83 ± 0.98^ac g
change of actual body weight excluding tumor weight compared with tumor xenograft group ([12]; oral, 35 days): −6.61%
change of weight gain during administration period compared with tumor xenograft control group ([12]; oral, 35 days): −341.95%
